{
  "source": "patent US20260053767A1",
  "about": "“Hepatoprotective Compositions And Methods” (Jemyll, Ltd., priority 2022, published 2026)",
  "key": {"NAMPT": {"test_system": "NAMPT", "test": "NAMPT enzyme levels in endothelial cells", "assay_type": "cell-based", "conditions": "EOMA endothelial cells, 6 hours; p=0.018", "source_text": "To that end, the inventors used endothelial cells (EOMA cells) and liver cells (AML-12 cells) in vitro and quantified various markers in response to exposure of the cells to environmental challenge in the presence and absence of DDA at low concentrations. Unless indicated otherwise, the DDA concentration in the in vitro experiments was 5 mcg per microliter. More specifically, the inventors measured p-H2AX protein levels as a marker for DNA damage, PGC-1α protein levels as a marker for mitochondrial biogenesis, NAMPT enzyme levels as a marker for potential for NAD+ production, and total antioxidant capacity as a marker of cellular health. In addition, the inventors also measured global SIRT activity as a gauge of activity for all SIRT enzymes, and in particular SIRT1 enzyme levels as markers for autophagy and various beneficial processes associated with a caloric restricted diet, and SIRT3 levels as markers for mitochondrial function and longevity.\nIn yet a further series of experiments, the inventors also sought to confirm whether or not DDDA would have a modulatory effect in endothelial cells using the same markers and experimental conditions as noted above.\nOn the other hand, where endothelial cells were exposed to DDDA, there was a significant difference in NAMPT enzyme levels as is exemplarily depicted in FIG. 15."}, "[1]": {"conditions": "relatively large oral doses (>20 g); cited from earlier work"}, "Wistar rats [2]": {"test_system": "Wistar rats", "test": "Liver histology (H&E, red oil ORO, Sirius red) in rats on high fat/high cholesterol diet with or without DDA", "assay_type": "in vivo", "source_text": "Animal Studies. All in vivo studies used Wistar rats that were kept for 9 weeks on a high fat/high cholesterol diet. The animals were then separated into two groups, a control group that continued the high fat/high cholesterol diet with regular water, whereas the treatment group continued the high fat/high cholesterol diet with water containing DDA (dodecanedioic acid) in an amount of 1% of the caloric intake. After all animals were separated in the respective test groups, body weights were recorded, and a glucose challenge test administered. […] Such effect is particularly unexpected as the quantity of DDA in the food was well below any quantity that was reasonably expected.\nWhile not wishing to be bound by any specific theory or hypothesis, the inventors contemplate that the DDA at the low levels inhibits the trans-differentiation of hepatic stellate cells to myofibroblasts that produce extracellular matrix proteins (including collagen), likely by protecting them from damage due to reactive oxygen species (ROS)."}, "Wistar rats [3]": {"test_system": "Wistar rats", "test": "Study 2 (reversal): oral glucose tolerance test and HOMA-IR", "assay_type": "in vivo", "conditions": "Study 2: 9 weeks high fat-high cholesterol diet, then 4 weeks treatment", "experimental": "Study design: All animal procedures were approved by the Catholic University of Rome Institutional Animal Care Committee. The design of the studies is summarized in FIG. 18, Panels A and B. • Study 1: Twenty adult Wistar rats, aged 8-10 weeks, were included in the study. The rats were housed in individual cages at 22° C. with 12-h light cycles and had ad libitum access to food and water. Rats were fed a high-fat high-cholesterol diet (44% Carbohydrate, 14% Protein, 42% fat+0.2% Cholesterol) (Mucedola, Milan, IT) for four weeks in the presence or absence of 1% Dodecanedioic acid, sodium salt (w/vol) dissolved in the water (FIG. 18, Panel A). Body weight and food/water intake were monitored weekly. • Study 2: Twenty adult Wistar rats, aged 8-10 weeks, were included in the study. The rats were housed in individual cages at 22° C. with 12-h light cycles and had ad libitum access to food and water. Rats were fed a high-fat high-cholesterol diet (44% Carbohydrate, 14% Protein, 42% fat+0.2% Cholesterol) (Mucedola, Milan, IT). After nine weeks of diet, rats were randomly assigned to one of the following groups: Four weeks of high-fat high-cholesterol diet or four weeks of high-fat high-cholesterol diet and 1% Dodecanedioic acid, sodium salt (w/v) dissolved in the water FIG. 18, Panel B). Body weight and food/water intake were monitored weekly.\nOral Glucose Test Tolerance (OGTT): All animals underwent an OGTT at the end of the study. After an overnight fasting, the rats received a 50% D-glucose solution (1 g/kg body weight) by oral gavage. Blood samples were taken by tail bleeding and collected in EDTA tubes. All blood samples were immediately centrifuged, and plasma divided into appropriate subsamples and stored at −20° C. for further analysis. Blood glucose and was measured at 0, 20, 40, 60, 80, 100 and 120 minutes, while plasma insulin at 0, 60 and 120 minutes. Blood glucose levels were measured by glucometer (Accu-Chek, Roche Diagnostics Division, Grenzacherstrasse, CH). Plasma insulin was measured by ELISA (EMD Millipore Corporation, Billerica, MA), with a sensitivity of 0.1 ng/ml and an intra-and inter-assay precision of 1.9% and 7.6%, respectively.\nDODA administration reverses insulin resistance and NASH: To assess if DODA could reverse the development of diet-induced insulin resistance and NASH, rats were first fed high fat high cholesterol diet for 9 weeks to develop insulin resistance and NASH. After 9 weeks of diet, DODA was administered for 4 weeks to assess insulin resistance and NASH reversal. Rats fed high fat high cholesterol diet without the administration of DODA were included as controls.\nPanels A and B. • Study 1: Twenty adult Wistar rats, aged 8-10 weeks, were included in the study. The rats were housed in individual cages at 22° C. with 12-h light cycles and had ad libitum access to food and water. Rats were fed a high fat high cholesterol diet (44% Carbohydrate, 14% Protein, 42% fat+0.2% Cholesterol) for 4 weeks in the presence or absence of 1% Dodecanedioic acid, sodium salt dissolved in the water (FIG. 25, Panel A). Body weight and food/water intake were monitored weekly. • Study 2: Twenty adult Wistar rats, aged 8-10 weeks, were included in the study. The rats were housed in individual cages at 22° C. with 12-h light cycles and had ad libitum access to food and water. Rats were fed a high fat-high cholesterol diet (44% Carbohydrate, 14% Protein, 42% fat+0.2% Cholesterol). […] Body weight and food/water intake were monitored weekly. […]"}},
  "note": "Entries after “also recorded” stand apart in the source; their conditions may differ.",
  "data": [
    {"smiles": "O=C(O)CCCCCCCCCCC(=O)O", "note": "[DDDA, dodecanedioic acid]", "values": [
      {"measurement": "NAMPT enzyme levels", "setting": "NAMPT", "result": "increased NAMPT enzyme levels"},
      {"measurement": "effect on blood glucose in healthy individuals", "setting": "[1]", "result": "no corresponding effects"},
      {"measurement": "effect on blood glucose in individuals diagnosed with NIDDM", "setting": "[1]", "result": "hypoglycemic effect"},
      {"measurement": "liver tissue morphology under H&E stain", "setting": "Wistar rats [2]; high fat/high cholesterol diet with DDA vs without", "result": "significantly closer to normal liver histology"},
      {"measurement": "fatty deposits in liver tissue, red oil (ORO) stain", "setting": "Wistar rats [2]; high fat/high cholesterol diet with low quantities of DDA", "result": "normal or near-normal microscopic appearance"},
      {"measurement": "fibrosis (Sirius red, hepatic collagen): rats without DDA compared to rats with DDA", "setting": "Wistar rats [2]; high fat/high cholesterol diet, DDA at low concentrations", "result": "significantly increased fibrosis as compared to those rats where the diet included DDA at low concentrations"},
      {"measurement": "hepatoprotective effect (histopathology, overall)", "setting": "Wistar rats [2]; low concentration of DDA in high fat/high cholesterol diet", "result": "substantial hepatoprotective effect"},
      {"measurement": "blood glucose concentrations during an oral glucose tolerance test", "setting": "Wistar rats [3]; vs controls", "result": "decrease"},
      {"measurement": "insulin resistance as assessed by HOMA-IR", "setting": "Wistar rats [3]; vs controls", "result": "reverse insulin resistance"},
      {"measurement": "plasma insulin concentrations during an oral glucose tolerance test", "setting": "Wistar rats [3]; vs controls", "result": "decrease"},
      {"measurement": "diet-induced insulin resistance and NASH (overall, reversal)", "setting": "Wistar rats [3]; listed as C12", "result": "could reverse both diet-induced insulin resistance and NASH; also recorded: reverses diet-induced insulin resistance"},
      {"measurement": "diet-induced insulin resistance and NASH (overall, reversal)", "setting": "Wistar rats [3]; listed as DODA", "result": "could reverse both diet-induced insulin resistance and NASH; also recorded: reverses diet-induced insulin resistance"}
    ]}
  ]
}
